Laboratory results taken from ChEMBL document CHEMBL1151157, “New cytotoxic steroids from the Indian Ocean sponge Axinella cf. bidderi” (2004).
Values after ≈ are worked out from the molar mass of the structure shown. Active and inactive are the calls of the source. The rule behind the calls is not given here.

How the values were obtained:
Type in all cases: functional
LNCaP = test: Cytotoxicity against human LNCAP cells by MTT assay
[1] = Cytotoxicity against human IGROV-ET cells by MTT assay
PANC-1 = test: Cytotoxicity against human PANC1 cells by MTT assay
LoVo = test: Cytotoxicity against human LoVo cells by MTT assay
Homo sapiens = species on record: Homo sapiens; test: (§1) Cytotoxicity against human NSCLC-N6-L16 cells by MTT assay
[2] = as §1

What does the source list for `CC1=C(CCC(C)C)OC[C@]23CC[C@H]4[C@@H](CC[C@H]5C[C@@H](O)CC[C@@]54C)[C@@H]2CC[C@H]13`?
GI50 (LNCaP): 2.88 µg/mL (≈ 7.19 µM); GI50 [1]: 6.66 µg/mL (≈ 16.6 µM); Activity (PANC-1): inactive; GI50 (LoVo): 8.29 µg/mL (≈ 20.7 µM); Activity (Homo sapiens): inactive

What does the source list for `CC(C)CC1OC1[C@@H](C)[C@@]1(O)CC[C@H]2[C@@H]3CC=C4C[C@@H](O)CC[C@]4(C)[C@H]3CC[C@@]21C` (stereo not given in full)?
GI50 (LNCaP): 3.09 µg/mL (≈ 7.42 µM); GI50 [1]: 1.24 µg/mL (≈ 2.98 µM); GI50 (PANC-1): 2.17 µg/mL (≈ 5.21 µM); GI50 (LoVo): 6.23 µg/mL (≈ 15 µM); GI50 [2]: 2 µg/mL (≈ 4.8 µM)

Which results are given for `CC(C)C(C)C1OC1[C@@H](C)[C@@]1(O)CC[C@H]2[C@@H]3CC=C4C[C@@H](O)CC[C@]4(C)[C@H]3CC[C@@]21C` (stereo not given in full)?
GI50 (LNCaP): 6.42 µg/mL (≈ 14.9 µM); GI50 [1]: 1.68 µg/mL (≈ 3.9 µM); GI50 (PANC-1): 2.74 µg/mL (≈ 6.36 µM); GI50 (LoVo): 4.02 µg/mL (≈ 9.33 µM); GI50 [2]: 0.6 µg/mL (≈ 1.39 µM)

For `CC1=C(CCC(C)C)OC[C@]23CC[C@H]4[C@@H](CC=C5C[C@@H](O)CC[C@@]54C)[C@@H]2CC[C@H]13`, which GI50 (LNCaP) is on record?
Its GI50 is 3.52 µg/mL (≈ 8.83 µM).

And the GI50 [1]?
The GI50 was 7.95 µg/mL (≈ 19.9 µM).

And the GI50 (PANC-1)?
Its GI50 is 8.92 µg/mL (≈ 22.4 µM).

What about the GI50 (LoVo) of the same molecule?
The GI50 was 6.91 µg/mL (≈ 17.3 µM).

What about the Activity (Homo sapiens) of the same molecule?
Its Activity is “inactive”.
